Source: patent US6737383B1, “Herbicidal oxadiazolidines” (priority 1999, dated 2004)

Key:
pigweed = test: Test B pre/postemergence pigweed; assay type: in vivo, Amaranthus retroflexus
Procedure, shortened: (§1)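 Test chemicals in a non-phytotoxic solvent mixture with surfactant were sprayed preemergence onto planted seeds and postemergence onto plants 2 to 18 cm tall (1- to 4-leaf stage). After twelve to sixteen days in a greenhouse, injury was visually rated against untreated controls from 0 (no effect) to 10 (complete control).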

purple nutsedge = test: Test B pre/postemergence purple nutsedge; assay type: in vivo, Cyperus rotundus
Procedure, shortened: as §1

sugar beet = test: Test B pre/postemergence sugar beet; assay type: in vivo, Beta vulgaris
Procedure, shortened: as §1

smallflower flatsedge = test: Test B flood test smallflower flatsedge; assay type: in vivo, Cyperus difformis
Procedure, shortened: (§2)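 Plants were grown to the 2-leaf stage before treatment with test chemical, then held in a greenhouse for twelve to sixteen days. Injury was visually rated against untreated controls on a 0–10 scale, where 0 is no effect and 10 is complete control.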

corn = test: Test B pre/postemergence corn; assay type: in vivo, Zea mays
Procedure, shortened: as §1

rape = test: Test B pre/postemergence rape; assay type: in vivo, Brassica napus
Procedure, shortened: as §1

cocklebur = test: Test B pre/postemergence cocklebur; assay type: in vivo, Xanthium strumarium
Procedure, shortened: as §1

rice = test: Test B flood test rice; assay type: in vivo, Oryza sativa
Procedure, shortened: as §2

velvetleaf = test: Test B pre/postemergence velvetleaf; assay type: in vivo, Abutilon theophrasti
Procedure, shortened: as §1

wheat = test: Test B pre/postemergence wheat; assay type: in vivo, Triticum aestivum
Procedure, shortened: as §1

duck salad = test: Test B flood test duck salad; assay type: in vivo, Heteranthera limosa
Procedure, shortened: as §2

morningglory = test: Test B pre/postemergence morningglory; assay type: in vivo, Ipomoea hederacea
Procedure, shortened: as §1

giant foxtail = test: Test B pre/postemergence giant foxtail; assay type: in vivo, Setaria faberii
Procedure, shortened: as §1

crabgrass = test: Test B pre/postemergence crabgrass; assay type: in vivo, Digitaria sanguinalis
Procedure, shortened: as §1

blackgrass = test: Test B pre/postemergence blackgrass; assay type: in vivo, Alopecurus myosuroides
Procedure, shortened: as §1

surinam grass = test: Test B pre/postemergence surinam grass; assay type: in vivo, Brachiaria decumbens
Procedure, shortened: as §1

[1] = Preemergence, Rate 62 g/ha, scale of 0 to 10 where 0 is no effect and 10 is complete control
[2] = Preemergence, Rate 250 g/ha, scale of 0 to 10 where 0 is no effect and 10 is complete control
[3] = Preemergence, Rate 500 g/ha, scale of 0 to 10 where 0 is no effect and 10 is complete control
[4] = Rate 62 g/ha, Postemergence, scale of 0 to 10 where 0 is no effect and 10 is complete control
[5] = Rate 125 g/ha, Postemergence, scale 0 to 10
[6] = Rate 125 g/ha, Preemergence, scale of 0 to 10 where 0 is no effect and 10 is complete control
[7] = Rate 500 g/ha, Postemergence, scale 0 to 10, 0 no effect, 10 complete control
[8] = Rate 62 g/ha, headed Pre-emergence (flood test species), scale 0 to 10 (0 no effect, 10 complete control)
[9] = Rate 125 g/ha, Pre-emergence, flood test species, scale 0 to 10 where 0 is no effect and 10 is complete control
[10] = Rate 250 g/ha, Pre-emergence, flood-test species, scale 0 to 10, 0 is no effect, 10 is complete control
[11] = Rate 500 g/ha, Pre-emergence, flood test species, scale 0 to 10 (0 no effect, 10 complete control)

## Cc1ccccc1-n1c(=O)on(C(=O)N(c2ccc(C(C)C)cc2)C(C)C)c1=O [Compound 231]
pigweed; [1]
  Redroot pigweed plant response rating: 0
pigweed; [2]
  Redroot pigweed plant response rating: 0
pigweed; [3]
  Plant response rating, Redroot pigweed: 0
pigweed; [4]
  Redroot pigweed plant response rating: 0
pigweed; [5]
  Redroot pigweed plant response rating: 0
pigweed; [6]
  Redroot pigweed plant response rating: 0
pigweed; Rate 250 g/ha, Postemergence
  Plant response rating (0 to 10; 0 is no effect, 10 is complete control), Redroot pigweed: 0
pigweed; [7]
  Redroot pigweed plant response rating: 0
Purple nutsedge; [1]
  Nutsedge plant response rating: 0
Purple nutsedge; [2]
  Nutsedge plant response rating: 0
Purple nutsedge; [3]
  Plant response rating, Nutsedge: 0
Purple nutsedge; [4]
  Nutsedge plant response rating: 0
Purple nutsedge; [5]
  Nutsedge plant response rating: 0
Purple nutsedge; [6]
  Nutsedge plant response rating: 0
Purple nutsedge; Rate 250 g/ha, Postemergence
  Plant response rating (0 to 10; 0 is no effect, 10 is complete control), Nutsedge: 0
Purple nutsedge; [7]
  Nutsedge plant response rating: 0
Sugar beet; [1]
  Sugarbeets plant response rating: 0
Sugar beet; [2]
  Sugarbeets plant response rating: 0
Sugar beet; [3]
  Plant response rating, Sugarbeets: 0
Sugar beet; [4]
  Sugarbeets plant response rating: 0
Sugar beet; [5]
  Sugarbeets plant response rating: 0
Sugar beet; [6]
  Sugarbeets plant response rating: 0
Sugar beet; Rate 250 g/ha, Postemergence
  Plant response rating (0 to 10; 0 is no effect, 10 is complete control), Sugarbeets: 0
Sugar beet; [7]
  Sugarbeets plant response rating: 0
Smallflower flatsedge; [8]
  S. Flatsedge plant response rating: 0
Smallflower flatsedge; [9]
  S. Flatsedge plant response rating: 0
Smallflower flatsedge; [10]
  S. Flatsedge plant response rating: 0
Smallflower flatsedge; [11]
  S. Flatsedge plant response rating: 0
corn; [1]
  Corn plant response rating: 0
corn; [2]
  Corn plant response rating: 0
corn; [3]
  Plant response rating, Corn: 0
corn; [4]
  Corn plant response rating: 0
corn; [5]
  Corn plant response rating: 0
corn; [6]
  Corn plant response rating: 0
corn; Rate 250 g/ha, Postemergence
  Plant response rating (0 to 10; 0 is no effect, 10 is complete control), Corn: 0
corn; [7]
  Corn plant response rating: 0
rape; [1]
  Rape plant response rating: 0
rape; [2]
  Rape plant response rating: 0
rape; [3]
  Plant response rating, Rape: 0
rape; [4]
  Rape plant response rating: 0
rape; [5]
  Rape plant response rating: 0
rape; [6]
  Rape plant response rating: 0
rape; Rate 250 g/ha, Postemergence
  Plant response rating (0 to 10; 0 is no effect, 10 is complete control), Rape: 0
rape; [7]
  Rape plant response rating: 0
cocklebur; [1]
  Cocklebur plant response rating: 0
cocklebur; [2]
  Cocklebur plant response rating: 0
cocklebur; [3]
  Plant response rating, Cocklebur: 0
cocklebur; [4]
  Cocklebur plant response rating: 0
cocklebur; [5]
  Cocklebur plant response rating: 0
cocklebur; [6]
  Cocklebur plant response rating: 0
cocklebur; Rate 250 g/ha, Postemergence
  Plant response rating (0 to 10; 0 is no effect, 10 is complete control), Cocklebur: 0
cocklebur; [7]
  Cocklebur plant response rating: 0
rice; [8]
  Rice plant response rating: 0
rice; [9]
  Rice plant response rating: 0
rice; [10]
  Rice plant response rating: 0
rice; [11]
  Rice plant response rating: 0
velvetleaf; [1]
  Velvetleaf plant response rating: 0
velvetleaf; [2]
  Velvetleaf plant response rating: 0
velvetleaf; [3]
  Plant response rating, Velvetleaf: 0
velvetleaf; [4]
  Velvetleaf plant response rating: 0
velvetleaf; [5]
  Velvetleaf plant response rating: 0
velvetleaf; [6]
  Velvetleaf plant response rating: 0
velvetleaf; Rate 250 g/ha, Postemergence
  Plant response rating (0 to 10; 0 is no effect, 10 is complete control), Velvetleaf: 0
velvetleaf; [7]
  Velvetleaf plant response rating: 0
wheat; [1]
  Wheat plant response rating: 0
wheat; [2]
  Wheat plant response rating: 0
wheat; [3]
  Plant response rating, Wheat: 0
wheat; [4]
  Wheat plant response rating: 0
wheat; [5]
  Wheat plant response rating: 0
wheat; [6]
  Wheat plant response rating: 0
wheat; Rate 250 g/ha, Postemergence
  Plant response rating (0 to 10; 0 is no effect, 10 is complete control), Wheat: 0
wheat; [7]
  Wheat plant response rating: 0
Duck salad; [8]
  Ducksalad plant response rating: 0
Duck salad; [9]
  Ducksalad plant response rating: 0
Duck salad; [10]
  Ducksalad plant response rating: 0
Duck salad; [11]
  Ducksalad plant response rating: 0
morningglory; [1]
  Morningglory plant response rating: 0
morningglory; [2]
  Morningglory plant response rating: 0
morningglory; [3]
  Plant response rating, Morningglory: 6
morningglory; [4]
  Morningglory plant response rating: 1
morningglory; [5]
  Morningglory plant response rating: 2
morningglory; [6]
  Morningglory plant response rating: 0
morningglory; Rate 250 g/ha, Postemergence
  Plant response rating (0 to 10; 0 is no effect, 10 is complete control), Morningglory: 3
morningglory; [7]
  Morningglory plant response rating: 4
Giant foxtail; [1]
  Giant foxtail plant response rating: 0
Giant foxtail; [2]
  Giant foxtail plant response rating: 3
Giant foxtail; [3]
  Plant response rating, Giant foxtail: 8
Giant foxtail; [4]
  Giant foxtail plant response rating: 0
Giant foxtail; [5]
  Giant foxtail plant response rating: 0
Giant foxtail; [6]
  Giant foxtail plant response rating: 0
Giant foxtail; Rate 250 g/ha, Postemergence
  Plant response rating (0 to 10; 0 is no effect, 10 is complete control), Giant foxtail: 0
Giant foxtail; [7]
  Giant foxtail plant response rating: 0
crabgrass; [1]
  Crabgrass plant response rating: 0
crabgrass; [2]
  Crabgrass plant response rating: 0
crabgrass; [3]
  Plant response rating, Crabgrass: 7
crabgrass; [4]
  Crabgrass plant response rating: 0
crabgrass; [5]
  Crabgrass plant response rating: 0
crabgrass; [6]
  Crabgrass plant response rating: 0
crabgrass; Rate 250 g/ha, Postemergence
  Plant response rating (0 to 10; 0 is no effect, 10 is complete control), Crabgrass: 0
crabgrass; [7]
  Crabgrass plant response rating: 2
blackgrass; [1]
  Blackgrass plant response rating: 0
blackgrass; [2]
  Blackgrass plant response rating: 0
blackgrass; [3]
  Plant response rating, Blackgrass: 0
blackgrass; [4]
  Blackgrass plant response rating: 0
blackgrass; [5]
  Blackgrass plant response rating: 0
blackgrass; [6]
  Blackgrass plant response rating: 0
blackgrass; Rate 250 g/ha, Postemergence
  Plant response rating (0 to 10; 0 is no effect, 10 is complete control), Blackgrass: 0
blackgrass; [7]
  Blackgrass plant response rating: 0
Surinam grass; [1]
  B. signalgrass plant response rating: 0
Surinam grass; Preemergence, Rate 250 g/ha, scale 0 to 10, 0 is no effect, 10 is complete control
  B. signalgrass plant response rating: 0
Surinam grass; [3]
  Plant response rating, B. signalgrass: 0
Surinam grass; [4]
  B. signalgrass plant response rating: 0
Surinam grass; Rate 125 g/ha, Postemergence, scale 0 (no effect) to 10 (complete control)
  B. signalgrass plant response rating: 0
Surinam grass; [6]
  B. signalgrass plant response rating: 0
Surinam grass; Rate 250 g/ha, Postemergence
  Plant response rating (0 to 10; 0 is no effect, 10 is complete control), B. signalgrass: 0
Surinam grass; [7]
  B. signalgrass plant response rating: 0
